This data set in a line: Human HepG2 cell viability assay in 384 well format. It counts as toxicity, cell-based. Further details: dose 125 nL, time 70.5 hour; cytotoxicity at 70.5 h: concentration not given beside the values. To be noted: HepG2 cells, read-out: Inhibition.
On to `Cc1n[nH]c2c1C(c1ccncc1)SCC(=O)N2` (stereo unspecified), for which the cytotoxicity at 70.5 h stood at 19.3%.
Turning to `Cc1nn(-c2ccccn2)c2c1C(c1cnn(C)c1)SCC(=O)N2` (stereo unspecified), the cytotoxicity at 70.5 h was -27.3%.
The value for `COC(=O)c1ccc(C2SCC(=O)Nc3c2cnn3C(C)(C)C)cc1` (stereo unspecified) was -13.2%.
The value for `CC(C)(C)n1ncc2c1NC(=O)CC2c1cccs1` (stereo unspecified) was -6.21%; that for `CCn1cc(-c2nn3c(C(C)C)nnc3s2)c(C)n1` was -14.2%.
As to `Cc1nn(C2CCS(=O)(=O)C2)c(O)c1Cc1ccccc1Cl` (stereo unspecified), the cytotoxicity at 70.5 h is -18.5%.
The value for `O=c1c(NCCO)c(N2CCN(c3ccccc3)CC2)c1=O` was -4.94%; that for `CC(C)CNC(=O)CNc1c(NCc2ccccn2)c(=O)c1=O` was 2.45%.
With `Cc1nn(C2CCS(=O)(=O)C2)c(O)c1Cc1ccccc1` (stereo unspecified), the cytotoxicity at 70.5 h was -16.5%.
The value for `Cc1nn(C2CCS(=O)(=O)C2)c(O)c1CCc1ccccc1` (stereo unspecified) was -8.16%; that for `COc1c[nH]c(C(=O)Nc2nc(C)cs2)cc1=O` was -5.81%; that for `Cc1cc(NC(=O)C(C#N)Cc2cnn(C)c2C)no1` (stereo unspecified) was -13.8%.
Under `O=c1c(NCCNCCO)c(N2CCN(c3ccc(F)cc3)CC2)c1=O` stands -7.08%.
The value for `COc1cccc2c1ccn2CCC(=O)Nc1c2c(nn1C)CSC2` was -11.9%.
As for `CC(C)C1Nc2ccccc2C(=O)N1CC(=O)Nc1nc2c(s1)CCC2` (stereo unspecified), the cytotoxicity at 70.5 h is -15.3%.
The value for `Cc1nn(C2CCS(=O)(=O)C2)c(O)c1Cc1cccc(Cl)c1` (stereo unspecified) was -17.9%; that for `CC(C)NC(=O)Nc1ccc2c(c1)ncn2CC(=O)NCCN(C)C` was -12.7%; that for `O=c1c(NCc2ccncc2)c(NCC(O)CN2CCOCC2)c1=O` (stereo unspecified) was -17.9%.
The value for `CN(C)CCNC(=O)Cn1cnc2cc(NC(=O)C3CC3)ccc21` was -10.6%.
The value for `CC(C)(CO)Nc1c(NCc2ccncc2)c(=O)c1=O` was -9.44%; that for `Cc1cccc2c1ccn2CCC(=O)Nc1c2c(nn1C)CSC2` was -7.62%; that for `CC1CC(=O)c2cc(C(=O)N3CCN(C)CC3)c(=O)[nH]c2C1` (stereo unspecified) was -5.53%.
For the molecule `O=c1c(NCCNCCO)c(N2CCN(c3ccccc3)CC2)c1=O`, the cytotoxicity at 70.5 h is -6.86%.
Under `CC(C)(CO)Nc1c(NCc2ccccn2)c(=O)c1=O` stands -8.21%; under `CC(C)CC(=O)Nc1ccc2c(c1)ncn2CC(=O)NCCN(C)C`, -6.17%.
For `CC(C)c1nnc(NC(=O)CN2C(=O)c3ccccc3NC2C(C)C)s1` (stereo unspecified), the cytotoxicity at 70.5 h was -13%.
Under `COc1cc(OC)cc(-c2noc(CC(N)c3ccccc3)n2)c1` (stereo unspecified) stands -5.26%; under `COc1c[nH]c(C(=O)Nc2nc(C(C)(C)C)cs2)cc1=O`, -0.552%; under `CC(C)CNC(=O)c1cccc(Oc2ccc3nncn3n2)c1`, -9.71%.
The value for `Cn1ccc2cc(C(=O)NC3CCOC(C)(C)C3)ccc21` (stereo unspecified) was 7.49%; that for `COc1cc(C2SC(C)=Nc3c2c(=O)[nH]n3C2CCCC2)ccc1O` (stereo unspecified) was -9.1%; that for `Cc1cc(N2CCCCC2)nc(N(CCO)CCO)c1C#N` was -8.15%.
Turning to `Cc1cc(NCc2ccccc2)nc2[nH]nc(N)c12`, the cytotoxicity at 70.5 h was -12.7%.
The value for `O=C(Cn1nc2c(cc1=O)CSCC2)N[C@@H](Cc1ccccc1)C(=O)O` was -5.32%; that for `COCCn1ccc(=O)c(OCC(=O)Nc2ccc(OC)cc2)c1C` was -12%; that for `Cn1[nH]c(CNc2cccc(Cl)c2)nc1=O` was -0.326%.
Under `Cc1cc(N2CCOCC2)nc(N(C)CCO)c1C#N` stands -5.45%.
Under `COc1ccc(-c2csc3c2c(N)nc(=O)n3CC(N)=O)cc1` stands -14.6%.
Turning to `O=C1CC(c2ccsc2)c2cnn(C3CCCC3)c2N1` (stereo unspecified), the cytotoxicity at 70.5 h is -9.93%.
Under `CCOC(=O)Cn1c(=O)nc(N)c2c(-c3ccc(OC)cc3)csc21` stands -12.9%; under `CN(C)S(=O)(=O)c1ccc(-c2nc(C#N)c(NC3CCCCC3)o2)o1`, -9.49%; under `O=C(Cn1ncc2c(c1=O)CCCCC2)Nc1cccc2[nH]ccc12`, 3.91%.
The value for `Cn1cc(NC(=O)CNC(=O)N2CCN(c3cccc(Cl)c3)CC2)cn1` was -4.74%.
Turning to `CC1=Nc2c(c(=O)[nH]n2C2CCCCC2)C(c2cccnc2)S1` (stereo unspecified), the cytotoxicity at 70.5 h is -12%.
Under `CC1=Nc2c(c(=O)[nH]n2C(C)C)C(c2ccc3c(c2)OCCO3)S1` (stereo unspecified) stands 7.71%.
As to `C=C(C)CN1CCN(CCC(=O)Nc2ccccc2C(N)=O)CC1`, the cytotoxicity at 70.5 h is -10.8%.
Under `Cc1nnc(NC(=O)CCc2c(C)nn3cnnc3c2C)s1` stands -7.03%; under `CCOc1ncccc1NC(=O)N1CCN(c2ccc(O)cc2)CC1`, 1.58%; under `Cc1ccccc1C(C)N(C)Cc1nc2c(cnn2C)c(=O)[nH]1` (stereo unspecified), -6.49%.
Regarding `CN(CC(=O)N1CCC(N(C)c2ccccc2)CC1)c1cnccn1`, the cytotoxicity at 70.5 h is 0.531%.
Under `CCOc1ccc(OCCN2CCC(N3CCNC3=O)CC2)cc1` stands 19%; under `CC1CN(C)CCN1CC(=O)NCCOc1cccc(F)c1` (stereo unspecified), -1.27%; under `Clc1ccc(CN2CCCCC2Cn2cncn2)c2ncccc12` (stereo unspecified), -0.976%.
The value for `CC(C)c1ccc(OCCNC(=O)CN2CCN(C)CC2C)cc1` (stereo unspecified) was 1.16%; that for `CCN1CCOC(CNCc2ccccc2OCc2ccncc2)C1` (stereo unspecified) was 14.2%; that for `CNc1nc(CNC(=O)Nc2cccc(OC)c2)cs1` was -0.727%.
The value for `CNc1nc(CNC(=O)Nc2cccc(-c3ncc(C)o3)c2)cs1` was 9.47%; that for `CNc1nc(CNC(=O)Nc2cccc(CSC)c2)cs1` was -3.79%.
For the molecule `COc1ccc(CC(=O)N2CCCC(c3cc(C)[nH]n3)C2)cc1` (stereo unspecified), the cytotoxicity at 70.5 h was -3.16%.
The value for `CNc1nc(CNC(=O)Nc2cccc(C(C)OC)c2)cs1` (stereo unspecified) was -4.31%; that for `CC(=O)NCCNC(=O)CN1CCOC(Cn2cccn2)C1` (stereo unspecified) was 0.989%; that for `Cn1cc(CCNC(=O)NCc2ccc3c(c2)OCCO3)cn1` was 2.32%.
Regarding `CN(Cc1cccc(F)c1)C(=O)c1cc2c([nH]c1=O)CCCC2=O`, the cytotoxicity at 70.5 h stood at 2.65%.
Take `CN(Cc1ccc2c(c1)OCO2)C(=O)NCCc1cnn(C)c1`: the cytotoxicity at 70.5 h was -3.13%.
Under `CC(NC(=O)NCCCn1cncn1)c1ccc(C(F)(F)F)cc1` (stereo unspecified) stands -7.5%.
The value for `CC(NC(=O)NCCCn1cncn1)c1ccc(F)cc1` (stereo unspecified) was -4.64%.
With `O=C1CCCc2[nH]c(=O)c(C(=O)N(Cc3ccsc3)C3CC3)cc21`, the cytotoxicity at 70.5 h is -1.04%.
Consider `CC(C)(C)c1nc(CN2CCN(C(=O)c3cnccn3)CC2)cs1`, for which the cytotoxicity at 70.5 h was -1.47%.
The value for `CN(Cc1cnn(C)c1)C(=O)NCc1ccc2c(c1)OCCO2` was 0.47%; that for `COCCCNC(=O)CN(C)C(=O)c1ccc(-n2cccc2)cc1O` was -0.626%.
Under `Cc1ccsc1CN(C)C(=O)c1cc2c([nH]c1=O)CCCC2=O` stands -7.76%.
Under `Cc1csc(N2CCN(CC(=O)N3CCNC3=O)CC2C)n1` (stereo unspecified) stands 12%.
For the molecule `Cc1csc(N2CCN(CC(=O)Nc3ccncc3)CC2C)n1` (stereo unspecified), the cytotoxicity at 70.5 h was 9.84%.
In the case of `Cc1csc(N2CCN(CC(=O)Nc3cc(C)nn3C)CC2C)n1` (stereo unspecified), the cytotoxicity at 70.5 h was found to be 2.09%.
Under `OCCn1cc(CN2CCN(CCOc3ccc(F)cc3)CC2)cn1` stands -2.54%; under `OCCn1cc(CN2CCN(CCOc3cccc(F)c3)CC2)cn1`, 1.71%; under `Cc1csc(CNC(=O)N(C)Cc2ccncc2)n1`, -0.603%.
`Cc1ccc(N(CCC#N)C(=O)CN2CCCC2c2ccsc2)cc1C` (stereo unspecified): the cytotoxicity at 70.5 h stood at 0.542%.
`COCCCNC(=O)CN(C)C(=O)c1cc2cc(C)ccc2nc1C`: the cytotoxicity at 70.5 h was 3.78%.
On to `CCN(CC)Cc1ccc(C(=O)N2CCCC2Cn2cc(C)cn2)o1` (stereo unspecified), for which the cytotoxicity at 70.5 h was found to be 2.44%.
The value for `CCN(CC)Cc1ccc(C(=O)N2CCCC2Cn2cccn2)cc1` (stereo unspecified) was -7.71%; that for `Cc1ccsc1CNC(=O)N(C)Cc1cnn(C)c1` was -12.7%; that for `CCN(CC)Cc1ccc(C(=O)N2CCCC2Cn2cccn2)o1` (stereo unspecified) was -1.33%.
Under `O=C(CN1CCOC(CNc2cccnn2)C1)NCc1cccs1` (stereo unspecified) stands -0.0167%; under `CN(Cc1cnn(C)c1)C(=O)NCCc1ccc2c(c1)OCCO2`, -2.65%; under `Cn1c(CN2CCCC(Cn3cncn3)C2)nc2ccccc21` (stereo unspecified), 28.9%.
The value for `c1ccc2nc(CN3CCCC3c3noc(C4CC4)n3)ccc2c1` (stereo unspecified) was 21.2%; that for `Cc1nc(C2CCCN2C(=O)c2ccc(N(C)C)nn2)no1` (stereo unspecified) was 25.8%.
Consider `CSc1ccc(CNC(c2ccc(F)cc2)c2nccn2C)cc1` (stereo unspecified), for which the cytotoxicity at 70.5 h was 0.212%.
Under `COc1cc(CNC(c2ccccc2)c2nccn2C)cc(OC)c1` (stereo unspecified) stands 0.143%.
The value for `CCCOc1ncccc1CNc1nnc(C)c(C)c1C#N` was 21.8%; that for `CC1CN(CC(=O)NCc2ccccn2)CCN1Cc1nccn1C` (stereo unspecified) was -3.22%; that for `CCc1nnc2n1CCN(Cc1cc(Cl)c3c(c1)OCCO3)C2` was 21.4%.
Under `CC1CN(CC(=O)Nc2nccs2)CCN1Cc1nccn1C` (stereo unspecified) stands -6.31%; under `C=C(C)CN1CCN(Cc2nccn2C)C(C)C1` (stereo unspecified), 30.2%.
Regarding `CC1CN(CC(=O)NC(C2CC2)C2CC2)CCN1Cc1nccn1C` (stereo unspecified), the cytotoxicity at 70.5 h was -3.28%.
The value for `Cc1nnc2n1CCN(Cc1ccc3c(c1)OCCO3)C2` was -2.45%; that for `CC1CN(CC(=O)NCc2ccccc2)CCN1Cc1nccn1C` (stereo unspecified) was 0.503%.
For the molecule `O=c1[nH]c(CN2CCCC(Cn3cncn3)C2)nc2ccccc12` (stereo unspecified), the cytotoxicity at 70.5 h was -4.42%.
Under `CC(C)n1c(=O)c2ccccc2n(CCN(C)C)c1=O` stands -8.7%; under `O=C(Nc1cccc(CNCc2ccsc2)c1)C1CC1`, 7.14%.

(Values after ChEMBL document CHEMBL3507680, “University of Dundee, Gates Library screen for HepG2 cell viability”.)
